According to patent US7138147B2, “Arsenic sulfide compounds and derivatives thereof for the treatment of malignancies” (priority 1998, dated 2006):

Experiments:
[1] = EPA/600/8-91/061; cited from earlier work
[2] = Side effects of arsenic disulfide treatment in patients; format: in vivo, human
From the text: (§1) Newly diagnosed, or relapsing patients are given a different protocol of treatment than are those patients who are in current remission. […] Preferably the dose given will range from approximately 0.5 to approximately 0.75 gram of arsenic disulfide. This equates to 2 to 3 capsules, according to the above formulation, by mouth for one dose. After the initial three days, the patient is given the compound three times daily until remission is induced. To prevent complications due to the potential build up of arsenic in the body, treatment should not exceed 100 days. In most cases, favorable response should be induced before forty days of treatment. These later doses may be somewhat reduced in amount compared to the original three day dosages. […] At this point, the patient should be reevaluated through testing, and allowed to rest before beginning another course of treatment according to the present protocol.
(§2) The patient then abstains from treatment for a set period of time. During this time, the patient is tested. Treatment is adjusted according to test results with the period of abstention lasting from two weeks to 100 days, depending upon results. The length of the maintenance procedure varies according to patients' conditions, and may last as long as 3 years (including treating and resting periods). Each dose during this phase of treatment preferably contains arsenic disulfide in the range of approximately 0.50 to 0.75 gram. Once again the preferred method of administration is orally through use of a capsule as described above. Usually, a maintenance treatment is divided into two stages.
(§3) Exclusion criteria for the study included history of hypersensitivity to arsenic compounds, previous treatment with arsenic-containing medications, patient in critical condition, excessively low or high white blood counts, existing heart, liver or kidney conditions, and severe infection. Three patients were excluded on these grounds, leaving 48 patients in the study. All 48 cases were treated with arsenic disulfide according to the above protocol. ATRA or other cytotoxic agents were not used. All 48 patients are living and Leukemia free as of April, 1998.
Side effects of treatment with arsenic disulfide are minimal when compared to those of other antineoplastic agents. Potential side effects include loss of appetite, mild diarrhea, and transient reversible increase of aspartate aminotransferase (AST). A minority of patients experienced cutaneous itching or puffing of the eyelids, and mild leukopenia occurred slowly in 34% of patients. One patient had thrombocytopenia without bleeding. There were no deaths associated with the use of arsenic sulfide.

[3] = Solubility of As4S4 in solvents; format: physicochemical; conditions: polyvinylpyrrolidone, pyrrolidone, alcohol, ether, di-sodium hydrophosphate, mercaptopurine, sodium bicarbonate; various concentrations
Protocol: In other experiments, a number of solvents, such as polyvinylpyrrolidone, pyrrolidone, alcohol, ether, di-sodium hydrophosphate, mercaptopurine and sodium bicarbonate, were tested to increase solubility of As4S4. […] Accordingly, As4S4 solubilized in the above solvents is useful for intravenous administration.

[4] = tested on: acute promyelocytic leukemia (APL); experiment: Clinical treatment of APL patients with arsenic disulfide; format: in vivo, human
From the text: as §1, §2
All patients who make up a part of the case studies have been diagnosed with APL on the basis of cell morphology of AML-M3, that is acute hypergranular promyelocytic leukemia, immunological cell markers, chromosomal analysis showing (15;17) translocation, and positive PML/RARα mRNA expression. Some patients were referred to the study with a diagnosis based solely on pathologic changes in cell morphology; these patients' diagnoses were tracked and reconfirmed throughout the study. Chronic myeloid leukemia and lymphoma patients have also benefitted from arsenic disulfide treatment, as illustrated by case studies 3 and 4.
Fifty-one patients met the inclusion criteria for the study.
as §3

[5] = tested on: chronic myeloid leukemia (CML); experiment: Case study 3: chronic myeloid leukemia patient; format: in vivo, human; conditions: case study 3, 0.6 gram twice daily
Protocol: A person was diagnosed as having chronic myeloid leukemia (CML) in February, 1959. […] Initially, they were treated with Myleran. On Jan. 20, 1960, the white blood cell count was […] showing a differential count of 11% promyelocyte and myelocyte. […] Patient was given 0.6 gram of arsenic disulfide twice daily. While being treated, blood and bone marrow pictures were controlled. The patient died, on Sep. 5, 1965 from infection unrelated to the arsenic sulfide treatment.

[6] = tested on: non-Hodgkin's lymphoma; experiment: Case study 4: non-Hodgkin's lymphoma patient; format: in vivo, human; conditions: case study 4, resistant to conventional anticancer treatment; since March, 1998
From the text: as §1
A person diagnosed with non-Hodgkin's lymphoma in September 1996 was treated with a combination chemotherapy regimen and had cranial irradiation for meningeal lymphoma. They also had high dose chemo-radiotherapy for autologous stem cell transplant. The patient has several relapses including intracranial relapse and a large amount of lymphoma cells in peripheral blood with typical clinical and laboratory features of lymphoma/leukemia. […]

[7] = in vivo; cited from earlier work
[8] = tested on: NB4 cells; conditions: in vitro, APL cell line; cited from earlier work
[9] = tested on: refractory APL; conditions: intravenous 10 mg/day for 4–9 weeks; cited from earlier work

Compound: S1[As]2S[As]3S[As]2S[As]13 [arsenic disulfide]
- carcinogenicity classification [1]: human carcinogens
- deaths associated with use ([2]; human, in vivo): no deaths
- thrombocytopenia without bleeding ([2]; human, in vivo): One patient
- mild leukopenia, incidence ([2]; occurred slowly): 34 % of patients
- side effects compared to other antineoplastic agents ([2]; patients): minimal
- solubility in solvents [3]: soluble
- time to complete remission level ([4]; case study 1): 36 days
- blast cells and leukemic promyelocytes ([4]; case study 1, Aug. 28, 1997): less than 5%
- hemoglobin and platelet levels ([4]; case study 1, FIG. 1): marked increase
- blasts and white blood cells ([4]; case study 1, FIG. 2): dramatic decrease
- clinical outcome ([4]; case study 1, newly diagnosed APL): complete remission
- blasts and white blood cells ([4]; case study 2, FIG. 4): dramatic change
- clinical outcome ([4]; case study 2, relapsed APL, treated 21 days): complete remission
- patients living and leukemia free ([4]; of 48 APL patients treated, as of April, 1998, no ATRA or cytotoxic agents): 48 patients
- patients attaining complete remission after one course of treatment ([4]; of ten newly diagnosed or relapsed patients): Eight
- markers indicating residual leukemia cells after maintenance protocol ([4]; patients in complete remission before treatment with positive markers): persistently negative
- patients alive and remaining in complete remission, leukemia free ([4]; ten newly diagnosed or relapsed patients): All ten
- blood and bone marrow pictures [5]: controlled
- clinical outcome [6]: in remission

Compound: S=[As]S[As]=S (stereo not drawn) [arsenic trisulfide]
- carcinogenicity classification [1]: human carcinogens
- tumorigenicity [7]: inconclusive

Compound: arsenic trioxide
- apoptosis (programmed cell death) [8]: induced apoptosis
- patients with complete morphologic remission [9]: 14 of 15

Compound: calcium arsenate [reference compound]
- tumorigenicity [7]: tumorigenic
